# According to US20230398161A1 (priority 2020, published 2023):
# How the values were obtained:
# [1] = system: Escherichia coli (E. coli) strain ATCC 700928; assay: Urinary tract infection model in C3H/OuJ mice, CK570: E. coli burden (CFU) in tissues; conditions: positive control, IV, all timepoints assessed
# Protocol: The vehicle used in this study was 1×TBS.
# C3H/OuJ female mice, aged approximately 8 weeks and weighing 21 to 24 grams, were used in this study. Mice were housed with 1 to 5 animals per cage and were provided food (5P76 Prolab isopro irradiated lab diet) and water ad libitum.
# Mice were anesthetized with 1-4% isoflurane in oxygen for 2-3 minutes until a deep plane of anesthesia was achieved, confirmed by toe pinch reflex. Each mouse was then placed on a board, ventral side up, with the nose inserted into a nose cone supplying isoflurane. The lower abdomen was gently massaged to expel any urine in the bladder. […] For IV administration, mice were manually restrained in a restrainer device, and study treatment was administered via the lateral tail vein. A dose volume of 100 μL was used for IV injections. For IU administration, the same method was used as for the original administration of E. coli. A dose volume of 50 μL was used for IU administration.
# All CFU data were log-transformed.
# [2] = system: 300-strain clinical isolate panel with an additional 4 strains; assay: Host range of CK618 and antibiotics alone and in combination, 304-isolate panel; type: cell-based, E. coli; conditions: antibiotic at concentration printed after name plus CK618
# Protocol: (§1) The first assay used a panel of 88 contemporaneous urinary tract infection (UTI) isolates from North America, Europe, Latin America, and Asia. […] The second assay used a panel made up of a 300-strain clinical isolate panel (Table 14) with an additional 4 strains of interest. […] Four of the same SOC antibiotics tested against the 88-isolate panel were tested against this panel. The non-SOC antibiotics were not included due to their limited use in clinical settings, and nitrofurantoin was not included due to the low probability of resistance to this drug.
# (§2) For both isolate panels, antibiotic concentrations tested were determined by using Clinical and Laboratory Standards Institute (CLSI) or European Committee on Antimicrobial Susceptibility Testing (EUCAST) breakpoints at concentrations that kill susceptible isolates but allow intermediate or resistant isolates to grow in the standard AST microdilution assay (Table 17).
# (§3) The cocktail was then mixed with bacteria to obtain final titers of 1×10^6 plaque-forming unit (PFU)/mL/phage for the cocktail and 1×10^5 colony-forming unit (CFU)/mL for the bacteria, resulting in a multiplicity of infection (MOI) of 10 for each phage in a sample. […] Reactions were incubated at 37° C. with shaking and OD measurements were taken each hour for 20 hours.
# [3] = system: 88 contemporaneous urinary tract infection (UTI) isolates; type: cell-based, E. coli; conditions: both isolate panels, Tables 18, 19
# Protocol: as §1, §2, §3
Compound,bacterial burden in each tissue [1],"Host range % on all strains (n = 304), Combination: Antibiotic + LBP-CK618 [2]",host range on MDR and beta-lactam-resistant strains compared with all strains (in words) [3],host range performance on all strains (in words) [3]
O=C(O)c1cn(C2CC2)c2cc(N3CCNCC3)c(F)cc2c1=O [Ciprofloxacin],significantly reduced bacterial burden to the LOD,,,
C[C@@H]1O[C@@H]1P(=O)(O)O [Fosfomycin],,97.0%,performed similarly regardless of antibiotic resistance status,strong activity across all strains
Trimethoprim/Sulfamethoxazole [TMP/SXT],,81.9%,,
